Experimental data taken from ChEMBL document CHEMBL2169811, “Oncoepigenomics: making histone lysine methylation count” (Eur J Med Chem, 2012).

Experiments:
[1] = biological target: T1, Histone-lysine N-methyltransferase EHMT2 (Homo sapiens, UniProt Q96KQ7)
T1 sequence (Q96KQ7 whole entry): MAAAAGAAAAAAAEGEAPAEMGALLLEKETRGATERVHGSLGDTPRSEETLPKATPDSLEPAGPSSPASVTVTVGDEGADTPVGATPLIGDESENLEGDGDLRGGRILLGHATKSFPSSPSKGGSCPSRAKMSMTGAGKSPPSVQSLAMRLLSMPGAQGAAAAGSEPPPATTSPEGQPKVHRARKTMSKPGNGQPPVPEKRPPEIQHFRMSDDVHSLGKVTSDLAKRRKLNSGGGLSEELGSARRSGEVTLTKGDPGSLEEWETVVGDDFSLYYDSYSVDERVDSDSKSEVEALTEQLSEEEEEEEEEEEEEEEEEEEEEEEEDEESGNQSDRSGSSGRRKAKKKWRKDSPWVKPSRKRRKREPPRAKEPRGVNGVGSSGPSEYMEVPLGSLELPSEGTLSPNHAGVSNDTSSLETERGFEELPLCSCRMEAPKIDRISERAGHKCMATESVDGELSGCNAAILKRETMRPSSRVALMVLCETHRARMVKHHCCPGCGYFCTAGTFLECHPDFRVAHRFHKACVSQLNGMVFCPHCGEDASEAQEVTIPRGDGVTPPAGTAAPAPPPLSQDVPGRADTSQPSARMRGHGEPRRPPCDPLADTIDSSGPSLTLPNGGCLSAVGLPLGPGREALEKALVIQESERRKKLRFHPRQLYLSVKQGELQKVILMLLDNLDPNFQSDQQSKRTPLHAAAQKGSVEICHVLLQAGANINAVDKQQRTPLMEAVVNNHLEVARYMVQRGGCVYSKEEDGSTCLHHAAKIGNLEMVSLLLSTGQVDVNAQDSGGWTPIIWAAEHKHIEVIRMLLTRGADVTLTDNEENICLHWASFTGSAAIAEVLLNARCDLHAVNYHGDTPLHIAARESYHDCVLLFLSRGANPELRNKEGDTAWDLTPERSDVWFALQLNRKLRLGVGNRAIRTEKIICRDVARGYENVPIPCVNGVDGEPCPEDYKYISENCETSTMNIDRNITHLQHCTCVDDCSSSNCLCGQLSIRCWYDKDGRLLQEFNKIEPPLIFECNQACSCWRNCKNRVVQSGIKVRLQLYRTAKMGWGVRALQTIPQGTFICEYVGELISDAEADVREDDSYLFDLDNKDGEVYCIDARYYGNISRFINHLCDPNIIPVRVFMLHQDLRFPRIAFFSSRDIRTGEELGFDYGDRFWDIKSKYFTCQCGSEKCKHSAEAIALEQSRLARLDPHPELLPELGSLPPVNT
Description: Inhibition of GST-tagged G9a after 1 hr by radioactive filter-binding assay

[2] = biological target: T2, Lysine-specific demethylase 4E (Homo sapiens, UniProt B2RXH2)
T2 sequence (B2RXH2 whole entry): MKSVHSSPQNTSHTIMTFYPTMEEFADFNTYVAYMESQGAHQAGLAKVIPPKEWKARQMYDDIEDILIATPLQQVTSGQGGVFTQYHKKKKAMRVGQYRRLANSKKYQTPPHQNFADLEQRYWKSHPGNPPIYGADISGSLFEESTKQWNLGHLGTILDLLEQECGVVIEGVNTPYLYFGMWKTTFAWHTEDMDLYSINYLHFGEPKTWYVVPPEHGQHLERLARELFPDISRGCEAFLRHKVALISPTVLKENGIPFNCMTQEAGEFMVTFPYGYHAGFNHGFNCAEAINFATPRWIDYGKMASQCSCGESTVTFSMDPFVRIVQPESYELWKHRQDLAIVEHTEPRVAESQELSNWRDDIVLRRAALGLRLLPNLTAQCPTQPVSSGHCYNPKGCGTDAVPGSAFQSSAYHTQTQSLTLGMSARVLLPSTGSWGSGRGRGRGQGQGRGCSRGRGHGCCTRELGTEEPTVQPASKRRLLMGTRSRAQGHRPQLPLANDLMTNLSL
Description: Inhibition of JMJD2E catalytic domain by mass spectrophotometric analysis

[3] = biological target: Protein arginine N-methyltransferase 1 (Homo sapiens, UniProt Q99873)
Description: Inhibition of PRMT1 using [3H]-SAM as substrate preincubated for 10 mins before substrate addition measured after 30 mins by scintillation counter

[4] = biological target: T1, Histone-lysine N-methyltransferase EHMT2; assay: Inhibition of G9a using [3H]-SAM as substrate preincubated for 10 mins before substrate addition measured after 30 mins by scintillation counter
[5] = biological target: T3, Histone-arginine methyltransferase CARM1 (Homo sapiens, UniProt Q86X55)
T3 sequence (Q86X55 whole entry): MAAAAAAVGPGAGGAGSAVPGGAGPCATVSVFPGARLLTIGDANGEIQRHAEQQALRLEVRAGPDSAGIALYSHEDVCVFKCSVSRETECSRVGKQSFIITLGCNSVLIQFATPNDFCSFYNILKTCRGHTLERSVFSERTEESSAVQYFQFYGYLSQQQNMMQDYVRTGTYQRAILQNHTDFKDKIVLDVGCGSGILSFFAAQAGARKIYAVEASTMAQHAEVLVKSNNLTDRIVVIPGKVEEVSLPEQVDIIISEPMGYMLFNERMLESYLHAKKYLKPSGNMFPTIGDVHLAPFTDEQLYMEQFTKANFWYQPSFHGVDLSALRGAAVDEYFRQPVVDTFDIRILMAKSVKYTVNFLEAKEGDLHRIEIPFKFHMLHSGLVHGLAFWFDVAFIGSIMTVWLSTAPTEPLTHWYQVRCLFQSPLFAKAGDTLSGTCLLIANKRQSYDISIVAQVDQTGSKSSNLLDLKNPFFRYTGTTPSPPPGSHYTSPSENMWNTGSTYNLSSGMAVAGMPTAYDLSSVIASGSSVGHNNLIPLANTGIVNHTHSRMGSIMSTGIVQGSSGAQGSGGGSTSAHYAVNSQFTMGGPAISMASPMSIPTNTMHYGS
Description: Inhibition of human CARM1 expressed in Escherichia coli BL21 (DE3) using [3H]-SAM as substrate preincubated for 10 mins before substrate addition measured after 30 mins by scintillation counter

[6] = biological target: T4, Histone-lysine N-methyltransferase SUV39H1 (Homo sapiens, UniProt O43463); assay: Inhibition of SUV39H1 using [3H]-SAM as substrate preincubated for 10 mins before substrate addition measured after 30 mins by scintillation counter
T4 sequence (O43463 whole entry): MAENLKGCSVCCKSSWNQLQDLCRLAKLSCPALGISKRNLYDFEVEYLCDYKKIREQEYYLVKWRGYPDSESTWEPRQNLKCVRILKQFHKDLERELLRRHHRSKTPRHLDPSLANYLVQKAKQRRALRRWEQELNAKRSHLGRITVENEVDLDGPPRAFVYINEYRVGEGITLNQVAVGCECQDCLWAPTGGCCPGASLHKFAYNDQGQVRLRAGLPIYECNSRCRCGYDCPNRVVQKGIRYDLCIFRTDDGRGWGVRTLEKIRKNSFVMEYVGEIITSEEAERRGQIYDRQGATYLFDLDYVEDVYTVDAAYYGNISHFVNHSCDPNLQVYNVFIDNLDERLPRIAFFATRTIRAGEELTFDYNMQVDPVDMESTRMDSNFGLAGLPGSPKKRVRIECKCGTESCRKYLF

[7] = biological target: Lysine-specific histone demethylase 1A (Homo sapiens, UniProt O60341)
Description: Inhibition of full length N-terminal 6x His-tagged human LSD1 expressed in Escherichia coli BL21 (DE3) using H3K4me2 peptide as substrate by luminol dependent chemiluminescence assay

HCT-116 [8] = assay: Growth inhibition of human HCT116 cells after 24 to 48 hrs by MTT assay; assay type: functional
RKO = assay: Growth inhibition of human RKO cells expressing p53 after 24 to 48 hrs by MTT assay; assay type: functional
[9] = biological target: T1, Histone-lysine N-methyltransferase EHMT2; assay: Inhibition of G9a
[10] = biological target: T4, Histone-lysine N-methyltransferase SUV39H1
PC-3 = assay: Growth inhibition of human PC3 cells after 48 hrs by MTT assay; assay type: functional; settings: PC-3, 48 h
HeLa = assay: Growth inhibition of human HeLa cells after 48 hrs by MTT assay; assay type: functional
[11] = Growth inhibition of human KYSE-150 cells after 48 hrs by MTT assay; assay type: functional; settings: KYSE-150, 48 h
SH-SY5Y = assay: Growth inhibition of human SH-SY5Y cells after 48 hrs by MTT assay; assay type: functional
HCT-116 [12] = assay: Growth inhibition of human HCT116 cells after 48 hrs by MTT assay; assay type: functional; settings: HCT-116, 48 h
[13] = biological target: T2, Lysine-specific demethylase 4E; assay: Inhibition of JMJD2E
[14] = biological target: T5, N-lysine methyltransferase SMYD2 (Homo sapiens, UniProt Q9NRG4); assay: Inhibition of full length human SMYD2 amino acid 1 to 433 expressed in Escherichia coli BL21 (DE3) using Biotinaminohexanoyl- GSRAHSSHLKSKKGQSTSRH as substrate after 75 mins by AlphaScreen assay
Homo sapiens [15] = organism: Homo sapiens; assay: Selectivity ratio of IC50 for G9a to IC50 for human SMYD2
Homo sapiens [16] = organism: Homo sapiens; assay: Selectivity ratio of IC50 for SMYD3 to IC50 for human SMYD2
Homo sapiens [17] = organism: Homo sapiens; assay: Selectivity ratio of IC50 for GLP to IC50 for human SMYD2
[18] = biological target: T5, N-lysine methyltransferase SMYD2; assay: Competitive binding affinity to full length human SMYD2 amino acid 1 to 433 expressed in Escherichia coli BL21 (DE3) after 90 mins by radioactive filter-binding assay in presence of P53 peptide
Homo sapiens [19] = organism: Homo sapiens; assay: Selectivity ratio of IC50 for SET7/9 to IC50 for human SMYD2
Homo sapiens [20] = organism: Homo sapiens; assay: Selectivity ratio of IC50 for EZH2 to IC50 for human SMYD2
Homo sapiens [21] = organism: Homo sapiens; assay: Selectivity ratio of IC50 for DOT1L to IC50 for human SMYD2
[22] = biological target: T2, Lysine-specific demethylase 4E; assay: Inhibition of human JMJD2E

T5 sequence (Q9NRG4 whole entry): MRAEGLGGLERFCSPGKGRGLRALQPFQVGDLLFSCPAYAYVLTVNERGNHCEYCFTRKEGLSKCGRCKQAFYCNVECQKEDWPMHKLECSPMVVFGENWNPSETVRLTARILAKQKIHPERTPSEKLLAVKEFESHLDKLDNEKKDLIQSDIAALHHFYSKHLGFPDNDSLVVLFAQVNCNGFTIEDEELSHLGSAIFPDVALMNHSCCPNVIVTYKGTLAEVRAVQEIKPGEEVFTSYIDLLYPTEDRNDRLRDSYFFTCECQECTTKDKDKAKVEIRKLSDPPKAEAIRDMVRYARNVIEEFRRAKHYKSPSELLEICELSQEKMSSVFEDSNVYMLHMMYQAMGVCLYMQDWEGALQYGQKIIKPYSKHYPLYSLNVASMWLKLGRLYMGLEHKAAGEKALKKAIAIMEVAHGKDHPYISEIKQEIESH
Sequence of Protein arginine N-methyltransferase 1 (Q99873 whole entry): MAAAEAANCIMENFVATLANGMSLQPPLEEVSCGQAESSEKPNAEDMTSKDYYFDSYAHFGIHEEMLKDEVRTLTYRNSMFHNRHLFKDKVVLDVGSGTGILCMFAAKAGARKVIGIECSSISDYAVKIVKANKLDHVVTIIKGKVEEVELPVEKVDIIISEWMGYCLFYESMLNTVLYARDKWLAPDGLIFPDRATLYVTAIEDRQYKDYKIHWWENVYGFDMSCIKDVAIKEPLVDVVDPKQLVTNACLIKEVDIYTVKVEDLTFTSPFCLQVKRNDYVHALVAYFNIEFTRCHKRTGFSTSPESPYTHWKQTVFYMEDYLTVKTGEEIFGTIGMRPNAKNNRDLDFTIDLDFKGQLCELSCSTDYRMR

CN1C(=O)[C@H]2C[C@]3([C@]45C[C@@H]6C(=O)N(C)[C@H](CO)C(=O)N6[C@H]4Nc4ccccc45)c4ccccc4N[C@@H]3N2C(=O)[C@H]1CO
IC50 [1]: > 50 µM

NCCNC(=O)c1ccnc(-c2cc(C(=O)O)ccn2)c1
IC50 [2]: 0.18 µM

N[C@@H](CCCN(CCI)C[C@H]1O[C@@H](n2cnc3c(NCc4ccccc4)ncnc32)[C@H](O)[C@@H]1O)C(=O)O
IC50 [3]: > 100 µM
IC50 [4]: > 100 µM
IC50 [5]: > 100 µM
IC50 [6]: > 100 µM

O=C(O)c1ccnc(-c2cc(C(=O)NCCc3ccccc3)ccn2)c1
IC50 [2]: 0.11 µM

CNc1ncnc2c1ncn2[C@@H]1O[C@H](CN(CCI)CCC[C@H](N)C(=O)O)[C@@H](O)[C@H]1O
IC50 [4]: > 100 µM
IC50 [5]: > 100 µM
IC50 [6]: > 100 µM

C/N=C(\NC)NCCCNCCCNCCCN/C(=N/C)NC
IC50 [7]: 0.5 µM

CCNCCCCNCCCCNCCCCNCCCCNC/C=C\CNCCCCNCCCCNCCCCNCCCCNCC
GI50 (HCT-116 [8]): 2.5 µM
GI50 (RKO): 2.5 µM

CN1C(=O)[C@@]23C[C@]4([C@]56C[C@@]78SS[C@@](C)(C(=O)N7[C@H]5Nc5ccccc56)N(C)C8=O)c5ccccc5N[C@@H]4N2C(=O)[C@]1(C)SS3
IC50 [9]: 0.63 µM
IC50 [10]: 0.53 µM

NC1CC1c1cccc(OCC[C@H](NC(=O)c2ccccc2)C(=O)NCc2ccccc2)c1 (stereo partly drawn)
GI50 (PC-3): 6 µM
GI50 (HeLa): 6 µM
GI50 [11]: 6 µM
GI50 (SH-SY5Y): 6 µM
GI50 (HCT-116 [12]): 6 µM

N[C@@H]1C[C@H]1c1ccc(OCC[C@H](NC(=O)c2ccccc2)C(=O)NCc2ccccc2)cc1
GI50 (PC-3): 6 µM
GI50 (HeLa): 6 µM
GI50 [11]: 6 µM
GI50 (SH-SY5Y): 6 µM
GI50 (HCT-116 [12]): 6 µM

CCNCCCCNCCCCNCCCCNCCCCNC/C=C/CNCCCCNCCCCNCCCCNCCCCNCC
GI50 (HCT-116 [8]): 2.5 µM
GI50 (RKO): 2.5 µM

CS[C@]1(CO)C(=O)N2[C@H]3C(=CC=C[C@@H]3OC(C)=O)C[C@@]2(SC)C(=O)N1C
IC50 [9]: > 10 µM
IC50 [10]: > 10 µM

CN1C(=O)[C@]23CC4=CC=C[C@H](O)[C@H]4N2C(=O)[C@@]1(CO)SS3 [GLIOTOXIN]
IC50 [9]: 0.53 µM
IC50 [10]: 0.26 µM

O=C(O)/C=C/C(=O)N(O)CCCCNCc1ccc(COC(=O)Nc2cccc3ccccc23)cc1
IC50 [13]: 5.9 µM
GI50 [11]: 5.1 µM

CN1C(=O)[C@]23C[C@@]4([C@@]56C[C@]78SS[C@](CO)(C(=O)N7[C@@H]5Nc5ccccc56)N(C)C8=O)c5ccccc5N[C@H]4N2C(=O)[C@@]1(CO)SS3
IC50 [1]: 1.7 µM

O=C1COc2c(CCNCCN(C(=O)CCNCCc3ccc(Cl)c(Cl)c3)C3CCCCC3)ccc(O)c2N1
IC50 [14]: 0.12 µM
Ratio IC50 (Homo sapiens [15]): 700
Ratio IC50 (Homo sapiens [16]): 700
Ratio IC50 (Homo sapiens [17]): 700
Ki [18]: 0.3 µM
Ratio IC50 (Homo sapiens [19]): 700
Ratio IC50 (Homo sapiens [20]): 700
Ratio IC50 (Homo sapiens [21]): 700

O=C(O)c1ccnc(C(=O)O)c1Nc1ccccc1F
IC50 [22]: 2.5 µM
